≈ marks a conversion by molar mass, not a printed value. Where “and” joins values, the source holds several entries; their conditions need not be identical. Equal entries are not always repeated.
Key:
M. tuberculosis Beijing = assay: Spot culture growth inhibition assay (SPOTi), MIC; format: cell-based, Mycobacterium tuberculosis; details: for Selectivity Index (SI) (SI = IC50/MIC) d: IC50 Vero / MIC M. tuberculosis Beijing
M. tuberculosis Haarlem = assay: Spot culture growth inhibition assay (SPOTi), MIC; format: cell-based, Mycobacterium tuberculosis; details: IC50 Vero / MIC M. tuberculosis Haarlem
[1] = system: M. tuberculosis ATCC 35822; assay: Spot culture growth inhibition assay (SPOTi), MIC; format: cell-based, Mycobacterium tuberculosis; details: IC50 Vero / MIC M. tuberculosis ATCC 35822 RI
[2] = system: M. tuberculosis ATCC 35838; assay: Spot culture growth inhibition assay (SPOTi), MIC; format: cell-based, Mycobacterium tuberculosis; details: IC50 Vero / MIC M. tuberculosis ATCC 35838 RR
M. bovis BCG = assay: microbe, parasite or virus in culture; format: cell-based; details: for Selectivity Index (SI) (SI = IC50/MIC) a: IC50 Vero / MIC M. bovis BCG; for MIC: Mycobacterium tuberculosis variant bovis BCG, BCG, read-out: MIC M. bovis BCG
MTT cytotoxicity assay = details: African green monkey
M. tuberculosis H37Rv = assay: Spot culture growth inhibition assay (SPOTi), MIC; format: cell-based, Mycobacterium tuberculosis; details: for Selectivity Index (SI) (SI = IC50/MIC) b: IC50 Vero / MIC M. tuberculosis H37Rv; for MIC: Mycobacterium tuberculosis, H37RV, SPOTi, 2–3 weeks at 37 °C
M. tuberculosis Orphan = assay: Spot culture growth inhibition assay (SPOTi), MIC; format: cell-based, Mycobacterium tuberculosis; details: IC50 Vero / MIC M. tuberculosis orphan
M. tuberculosis LAM 9 = assay: Spot culture growth inhibition assay (SPOTi), MIC; format: cell-based, Mycobacterium tuberculosis; details: IC50 Vero / MIC M. tuberculosis LAM 9 (sit 42)
[3] = system: M. tuberculosis H37RV strain; parameters: method as in earlier work; details: cited from earlier work; for MIC: observed activity of QSAR data set; for MIC exp (log (1/molarMIC)): pMIC from literature MIC in mol/L

SMILES: CC(/C=C/c1cc2cc(C)ccc2[nH]c1=O)=N\NC(N)=S [Compound 11b, (E)-2-((E)-4-(6-Methyl-2-oxo-1,2-dihydroquinolin-3-yl)but-3-en-2-ylidene)hydrazine-1-carbothioamide]
- Selectivity Index (SI) (SI = IC50/MIC) d (M. tuberculosis Beijing): 2.13
- Selectivity Index (SI) (SI = IC50/MIC) f (M. tuberculosis Haarlem): 1.06
- Selectivity Index (SI) (SI = IC50/MIC) h [1]: 1.06
- Selectivity Index (SI) (SI = IC50/MIC) g [2]: 1.06
- Selectivity Index (SI) (SI = IC50/MIC) a (M. bovis BCG): 22.06
- MIC (M. bovis BCG): 0.16 µM (≈ 0.0481 µg/mL)
- IC50 at 48 h (MTT cytotoxicity assay): 3530 nM
- Selectivity Index (SI) (SI = IC50/MIC) b (M. tuberculosis H37Rv): 22.06
- MIC (M. tuberculosis H37Rv): 0.16 µM (≈ 0.0481 µg/mL)
- Selectivity Index (SI) (SI = IC50/MIC) c (M. tuberculosis Orphan): 0.11
- Selectivity Index (SI) (SI = IC50/MIC) e (M. tuberculosis LAM 9): 0.21

SMILES: CC(/C=C/c1cc2cccc(C)c2[nH]c1=O)=N\NC(N)=S [Compound 11c, (E)-2-((E)-4-(8-Methyl-2-oxo-1,2-dihydroquinolin-3-yl)but-3-en-2-ylidene)hydrazine-1-carbothioamide]
- melting point: 241 °C
- Selectivity Index (SI) (SI = IC50/MIC) d (M. tuberculosis Beijing): 5.76
- Selectivity Index (SI) (SI = IC50/MIC) f (M. tuberculosis Haarlem): 0.06
- Selectivity Index (SI) (SI = IC50/MIC) h [1]: 5.76
- Selectivity Index (SI) (SI = IC50/MIC) g [2]: 1.14
- Selectivity Index (SI) (SI = IC50/MIC) a (M. bovis BCG): 5.75
- MIC (M. bovis BCG): 0.33 µM (≈ 0.0991 µg/mL)
- IC50 at 48 h (MTT cytotoxicity assay): 1900 nM
- Selectivity Index (SI) (SI = IC50/MIC) b (M. tuberculosis H37Rv): 11.88
- MIC (M. tuberculosis H37Rv): 0.16 µM (≈ 0.0481 µg/mL)
- Selectivity Index (SI) (SI = IC50/MIC) c (M. tuberculosis Orphan): 0.03
- Selectivity Index (SI) (SI = IC50/MIC) e (M. tuberculosis LAM 9): 0.58

SMILES: CC(/C=C/c1cc2ccc(Cl)cc2[nH]c1=O)=N\NC(N)=S [Compound 11d, (E)-2-((E)-4-(7-Chloro-2-oxo-1,2-dihydroquinolin-3-yl)but-3-en-2-ylidene)hydrazine-1-carbothioamide]
- melting point: 246 °C
- Selectivity Index (SI) (SI = IC50/MIC) d (M. tuberculosis Beijing): 5.00
- Selectivity Index (SI) (SI = IC50/MIC) f (M. tuberculosis Haarlem): 1.06
- Selectivity Index (SI) (SI = IC50/MIC) h [1]: 0.26
- Selectivity Index (SI) (SI = IC50/MIC) g [2]: 0.50
- Selectivity Index (SI) (SI = IC50/MIC) a (M. bovis BCG): 55.00
- MIC (M. bovis BCG): 0.03 µM (≈ 0.00962 µg/mL)
- IC50 at 48 h (MTT cytotoxicity assay): 1650 nM
- Selectivity Index (SI) (SI = IC50/MIC) b (M. tuberculosis H37Rv): 11.00
- MIC (M. tuberculosis H37Rv): 0.15 µM (≈ 0.0481 µg/mL)
- Selectivity Index (SI) (SI = IC50/MIC) c (M. tuberculosis Orphan): 0.26
- Selectivity Index (SI) (SI = IC50/MIC) e (M. tuberculosis LAM 9): 0.53

SMILES: CC(/C=C/c1cc2cc(Br)ccc2[nH]c1=O)=N\NC(N)=S [Compound 11e, (E)-2-((E)-4-(6-Bromo-2-oxo-1,2-dihydroquinolin-3-yl)but-3-en-2-ylidene)hydrazine-1-carbothioamide]
- melting point: 253 °C
- Selectivity Index (SI) (SI = IC50/MIC) d (M. tuberculosis Beijing): 8.15
- potency relative to Oxafloxacin (M. tuberculosis Beijing; M. tuberculosis Beijing): tenfold more potent than Oxafloxacin
- Selectivity Index (SI) (SI = IC50/MIC) f (M. tuberculosis Haarlem): 0.08
- Selectivity Index (SI) (SI = IC50/MIC) h [1]: 1.61
- Selectivity Index (SI) (SI = IC50/MIC) g [2]: 0.81
- Selectivity Index (SI) (SI = IC50/MIC) a (M. bovis BCG): 16.92
- MIC (M. bovis BCG): 0.13 µM (≈ 0.0475 µg/mL)
- IC50 at 48 h (MTT cytotoxicity assay): 2200 nM
- Selectivity Index (SI) (SI = IC50/MIC) b (M. tuberculosis H37Rv): 16.92
- MIC (M. tuberculosis H37Rv): 0.13 µM (≈ 0.0475 µg/mL)
- Selectivity Index (SI) (SI = IC50/MIC) c (M. tuberculosis Orphan): 0.08
- Selectivity Index (SI) (SI = IC50/MIC) e (M. tuberculosis LAM 9): 0.80

SMILES: O=C(NCCNc1ccnc2cc(Cl)ccc12)Nc1ccc(Cl)cc1 [Compound 18]
- MIC [3]: 10.65 µM (≈ 4 µg/mL)
- MIC exp (log (1/molarMIC)) [3]: 4.97

SMILES: O=[N+]([O-])c1ccc(N2CCN(c3ccnc4cc(Cl)ccc34)CC2)c2nonc12 [Compound 19]
- MIC [3]: 7.26 µM (≈ 2.98 µg/mL)
- MIC exp (log (1/molarMIC)) [3]: 5.13

SMILES: O=C(NNc1ccnc2cc(Cl)ccc12)c1ccccc1N=Cc1ccc(F)cc1 [Compound 20]
- MIC [3]: 6.25 µM (≈ 2.62 µg/mL)
- MIC exp (log (1/molarMIC)) [3]: 5.2

SMILES: O=C(NNc1ccnc2cc(Cl)ccc12)c1ccccc1N=Cc1ccc(Br)cc1 [Compound 21]
- MIC [3]: 6.25 µM (≈ 3 µg/mL)
- MIC exp (log (1/molarMIC)) [3]: 5.2

SMILES: O=C(NNc1ccnc2cc(Cl)ccc12)c1ccccc1N=Cc1ccc(Cl)cc1Cl [Compound 22]
- MIC [3]: 6.25 µM (≈ 2.94 µg/mL)
- MIC exp (log (1/molarMIC)) [3]: 5.20

SMILES: COc1ccc(C=Nc2ccccc2C(=O)NNc2ccnc3cc(Cl)ccc23)cc1OC [Compound 23]
- MIC [3]: 6.25 µM (≈ 2.88 µg/mL)
- MIC exp (log (1/molarMIC)) [3]: 5.20

SMILES: COc1cc(C=Nc2ccccc2C(=O)NNc2ccnc3cc(Cl)ccc23)cc(OC)c1OC [Compound 24]
- MIC [3]: 6.25 µM (≈ 3.07 µg/mL)
- MIC exp (log (1/molarMIC)) [3]: 5.20

SMILES: O=C(NNc1ccnc2cc(Cl)ccc12)c1ccccc1N=Cc1ccc(-c2cccs2)cc1 [Compound 25]
- MIC [3]: 6.25 µM (≈ 3.02 µg/mL)
- MIC exp (log (1/molarMIC)) [3]: 5.20

SMILES: O=C(NNc1ccnc2cc(Cl)ccc12)c1ccccc1N=CC=Cc1ccccc1 [Compound 26]
- MIC [3]: 3.12 µM (≈ 1.33 µg/mL)
- MIC exp (log (1/molarMIC)) [3]: 5.51

SMILES: Cc1nc2ccccc2c(-c2ccccc2)c1C(=O)c1ccccc1 [Compound 27]
- MIC [3]: 19.33 µM (≈ 6.25 µg/mL)
- MIC exp (log (1/molarMIC)) [3]: 4.71

SMILES: CC(=O)c1c(C)nc2ccc(Cl)cc2c1-c1ccccc1 [Compound 28]
- MIC [3]: 10.57 µM (≈ 3.13 µg/mL)
- MIC exp (log (1/molarMIC)) [3]: 4.98

SMILES: c1ccc(-c2c3c(nc4ccccc24)CCCCC3)cc1 [Compound 29]
- MIC [3]: 45.73 µM (≈ 12.5 µg/mL)
- MIC exp (log (1/molarMIC)) [3]: 4.34

SMILES: CC1CC(=O)c2c(nc3ccccc3c2-c2ccccc2)C1 (centres unmarked) [Compound 30]
- MIC [3]: 21.75 µM (≈ 6.25 µg/mL)
- MIC exp (log (1/molarMIC)) [3]: 4.66

SMILES: CC1(C)CC(=O)c2c(nc3ccccc3c2-c2ccccc2)C1 [Compound 31]
- MIC [3]: 20.74 µM (≈ 6.25 µg/mL)
- MIC exp (log (1/molarMIC)) [3]: 4.68

SMILES: O=C1CC(c2ccccc2)Cc2nc3ccccc3c(-c3ccccc3)c21 (centres unmarked) [Compound 32]
- MIC [3]: 35.77 µM (≈ 12.5 µg/mL)
- MIC exp (log (1/molarMIC)) [3]: 4.45

SMILES: c1ccc(-c2cc(-c3ccccc3)c3ccccc3n2)cc1 [Compound 33]
- MIC [3]: 11.11 µM (≈ 3.13 µg/mL)
- MIC exp (log (1/molarMIC)) [3]: 4.95

SMILES: c1ccc(-c2cc(Cc3ccco3)nc3ccccc23)cc1 [Compound 34]
- MIC [3]: 21.75 µM (≈ 6.21 µg/mL)
- MIC exp (log (1/molarMIC)) [3]: 4.66

SMILES: COc1ccc(NC(=O)c2c(C)nc3ccccc3c2-c2ccccc2)cc1 [Compound 35]
- MIC [3]: 8.48 µM (≈ 3.12 µg/mL)
- MIC exp (log (1/molarMIC)) [3]: 5.07

SMILES: Cc1nc2ccccc2c(-c2ccccc2)c1C(=O)Nc1ccc(F)cc1 [Compound 36]
- MIC [3]: 16.76 µM (≈ 5.97 µg/mL)
- MIC exp (log (1/molarMIC)) [3]: 4.78

SMILES: Cc1nc2ccccc2c(-c2ccccc2)c1C(=O)Nc1ccc(Cl)cc1 [Compound 37]
- MIC [3]: 17.54 µM (≈ 6.54 µg/mL)
- MIC exp (log (1/molarMIC)) [3]: 4.76

SMILES: Cc1nc2ccccc2c(-c2ccccc2)c1C(=O)Nc1ccc(Br)cc1 [Compound 38]
- MIC [3]: 30.92 µM (≈ 12.9 µg/mL)
- MIC exp (log (1/molarMIC)) [3]: 4.51

SMILES: Cc1nc2ccccc2c(-c2ccccc2)c1C(=O)Nc1ccccc1Cl [Compound 39]
- MIC [3]: 33.53 µM and 18.42 µM
- MIC exp (log (1/molarMIC)) [3]: 4.47 and 4.73

SMILES: Cc1nc2ccccc2c(-c2ccccc2)c1C(=O)NCc1ccccc1Cl [Compound 43]
- MIC [3]: 64.42 µM (≈ 24.9 µg/mL)
- MIC exp (log (1/molarMIC)) [3]: 4.19

SMILES: Cc1nc2ccccc2c(-c2ccccc2)c1C(=O)NCc1ccc(C(C)(C)C)cc1 [Compound 44]
- MIC [3]: 33.75 µM (≈ 13.8 µg/mL)
- MIC exp (log (1/molarMIC)) [3]: 4.47

SMILES: NNC(=O)c1ccncc1 [Isoniazid, reference compound]
- MIC (M. bovis BCG): 0.36 µM (≈ 0.0494 µg/mL)
- MIC (M. tuberculosis H37Rv): 0.36 µM (≈ 0.0494 µg/mL)

— paper PMC9854539, “QSAR Studies, Molecular Docking, Molecular Dynamics, Synthesis, and Biological Evaluation of Novel Quinolinone-Based Thiosemicarbazones against Mycobacterium tuberculosis” (Antibiotics, 2022)
